# Assay results published in patent US20180265867A1, “NUCLEIC ACID MOLECULES WITH ENHANCED ACTIVITY” (priority 2015, published 2018).
# d = 2'-deoxy (DNA); r = 2'-OH (RNA)
# Experiment: Thermal denaturation (Tm) of siRNA duplexes
# Assay type: physicochemical
# Conditions: for Tm: 7.5 mM phosphate buffer pH 7.0 containing 140 mM KCl, 1 μM strands, 40-95° C.; for Δ Tm: Tm relative to canonical siRNA (dT2)
# Protocol: Thermal denaturation studies of siRNA was carried out in phosphate buffer, pH 7.0, containing 140 mM KCl. UV absorbance was monitored at 260 nm in the temperature range from 40 to 95° C. using a Lambda 35 UV-Vis spectrophotometer equipped with a Peltier temperature programmer with a heating rate of 0.5° C./min. Samples (1 μM RNA) were denatured at 90° C. for 3 min followed by slow cooling to 27° C. prior to the measurements. Tm values were obtained from the maxima of the first derivatives of the melting curves. All Tm values given are the averages of three independent sets of experiments (±0.3° C. error range).
Substance,Tm [°C],Δ Tm [°C],drop in Tm (as compared to canonical siRNA) [°C]
"dC5: GAPDH siRNA, sense SEQ ID NO: 8 with dC5 3′-overhang, antisense SEQ ID NO: 2 with dT2 (sense CCGAGCCACAUCGCUCAGACCCCC; antisense UCUGAGCGAUGUGGCUCGGTT; sense: sugars from the 5' end r19 d5, backbone not given here; antisense: sugars from the 5' end r19 d2, backbone not given here)",80.9,−0.3,
"dG5: GAPDH siRNA, sense SEQ ID NO: 7 with dG5 3′-overhang, antisense SEQ ID NO: 2 with dT2 (sense CCGAGCCACAUCGCUCAGAGGGGG; antisense UCUGAGCGAUGUGGCUCGGTT; sense: sugars from the 5' end r19 d5, backbone not given here; antisense: sugars from the 5' end r19 d2, backbone not given here)",79.2,−2.0,~2
